Results published in patent US9174974B2, “Macrocyclic factor VIIa inhibitors” (BRISTOL-MYERS SQUIBB COMPANY, priority 2012, dated 2015).
Like-named read-outs stand apart in the source and are kept apart here.

Tests used:
human FVIIa = human FVIIa (Homo sapiens (Human), UniProt P08709); test: FVIIa Ki (37° C.), FVIIa-Xase assay; format: biochemical; settings: for Ki(HK1)/Ki(FVIIa): selectivity ratio, tissue kallikrein (HK1) vs FVIIa
tissue kallikrein (HK1) = tissue kallikrein (HK1) (Homo sapiens (Human), UniProt P06870); test: Tissue kallikrein-1 (HK1) Ki, fluorogenic substrate assay; format: biochemical; settings: 37° C.
tissue kallikrein (HK1), sequence (P06870 25-262): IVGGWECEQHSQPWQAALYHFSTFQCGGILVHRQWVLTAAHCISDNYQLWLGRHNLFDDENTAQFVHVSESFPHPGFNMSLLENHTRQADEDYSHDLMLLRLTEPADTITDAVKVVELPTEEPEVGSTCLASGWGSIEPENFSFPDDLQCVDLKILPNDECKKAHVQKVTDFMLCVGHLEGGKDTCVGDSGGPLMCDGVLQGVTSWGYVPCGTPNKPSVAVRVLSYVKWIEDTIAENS

human FVIIa, sequence (P08709 61-212): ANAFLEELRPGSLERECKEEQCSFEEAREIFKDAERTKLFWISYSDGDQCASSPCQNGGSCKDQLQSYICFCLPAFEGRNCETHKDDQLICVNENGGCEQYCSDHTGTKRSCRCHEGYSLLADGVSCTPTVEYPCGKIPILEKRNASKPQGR
human FVIIa, sequence (P08709 213-466): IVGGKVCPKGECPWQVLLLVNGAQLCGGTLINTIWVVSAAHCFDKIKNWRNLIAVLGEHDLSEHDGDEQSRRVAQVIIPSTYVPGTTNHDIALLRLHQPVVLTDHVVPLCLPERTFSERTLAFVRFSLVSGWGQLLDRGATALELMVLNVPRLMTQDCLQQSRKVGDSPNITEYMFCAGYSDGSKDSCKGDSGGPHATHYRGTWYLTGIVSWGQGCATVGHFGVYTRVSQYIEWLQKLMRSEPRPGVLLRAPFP
human FVIIa, sequence (P13726 33-295 partner): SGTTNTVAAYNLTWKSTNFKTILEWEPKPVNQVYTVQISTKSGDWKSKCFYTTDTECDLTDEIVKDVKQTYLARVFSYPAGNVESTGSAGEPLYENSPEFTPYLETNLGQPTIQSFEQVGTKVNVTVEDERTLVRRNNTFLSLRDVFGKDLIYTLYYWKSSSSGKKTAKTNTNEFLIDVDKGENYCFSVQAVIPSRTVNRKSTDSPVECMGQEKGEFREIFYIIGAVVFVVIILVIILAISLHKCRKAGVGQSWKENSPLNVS

Compound	Ki (human FVIIa; read-out: FVIIa Ki, nM 37° C.)	Ki(HK1)/Ki(FVIIa) (human FVIIa)	Ki (tissue kallikrein (HK1))	Ki (human FVIIa)
Cc1cc2ccc1[C@@H](C)COC(=O)Nc1ccc(C3(c4nnn[nH]4)CC3)c(c1)CN(C)C(=O)[C@@H]2Nc1ccc2c(N)nccc2c1.O=C(O)C(F)(F)F [Example 36, (2R,15R)-2-[(1-Aminoisoquinolin-6-yl)amino]-4,15,20-trimethyl-7-[1-(1H-1,2,3,4-tetrazol-5-yl)cyclopropyl]-13-oxa-4,11-diazatricyclo[14.2.2.1^6,10]henicosa-1(18),6,8,10 (21),16,19-hexaene-3,12-dione; trifluoroacetic acid]	0.12 nM	1917	230 nM	–
Cc1cc2ccc1[C@@H](C)COC(=O)Nc1cc(F)c(OCC3(C#N)CC3)c(c1)CN(C)C(=O)[C@@H]2Nc1ccc2c(N)nccc2c1.O=C(O)C(F)(F)F [Example 18, 1-({[(2R,15R)-2-[(1-Aminoisoquinolin-6-yl)amino]-8-fluoro-4,15,20-trimethyl-3,12-dioxo-13-oxa-4,11-diazatricyclo[14.2.2.1^6,10]henicosa-1(18),6,8,10 (21),16,19-hexaen-7-yl]oxy}methyl)cyclopropane-1-carbonitrile; trifluoroacetic acid]	–	1114	490 nM	0.44 nM
Cc1cc2ccc1[C@@H](C)COC(=O)Nc1cc(F)c(OCCN3CCCC3=O)c(c1)CN(C)C(=O)[C@@H]2Nc1ccc2c(N)nccc2c1.O=C(O)C(F)(F)F [Example 35, (2R,15R)-2-[(1-Aminoisoquinolin-6-yl)amino]-8-fluoro-4,15,20-trimethyl-7-[2-(2-oxopyrrolidin-1-yl)ethoxy]-13-oxa-4,11-diazatricyclo[14.2.2.16,10]henicosa-1(18),6,8,10 (21),16,19-hexaene-3,12-dione; trifluoroacetic acid]	0.14 nM	1500	210 nM	–
Cc1cc2ccc1[C@@H](C)COC(=O)Nc1cc(F)c(OC[C@H](C)O)c(c1)CN(C)C(=O)[C@@H]2Nc1ccc2c(N)nccc2c1.O=C(O)C(F)(F)F [Example 17, (2R,15R)-2-[(1-Aminoisoquinolin-6-yl)amino]-8-fluoro-7-[(2S)-2-hydroxypropoxy]-4,15,20-trimethyl-13-oxa-4,11-diazatricyclo[14.2.2.1^6,10]henicosa-1(18),6,8,10 (21),16,19-hexaene-3,12-dione; trifluoroacetic acid]	0.46 nM	870	400 nM	–
Cc1cc2ccc1[C@@H](C)COC(=O)Nc1cc(F)c(O[C@@H]3COC[C@@H]3O)c(c1)CN(C)C(=O)[C@@H]2Nc1ccc2c(N)nccc2c1.O=C(O)C(F)(F)F [Example 27, (2R,15R)-2-[(1-Aminoisoquinolin-6-yl)amino]-8-fluoro-7-{[(3R,4S)-4-hydroxyoxolan-3-yl]oxy}-4,15,17-trimethyl-13-oxa-4,11-diazatricyclo[14.2.2.1^6,10]henicosa-1(18),6,8,10 (21),16,19-hexaene-3,12-dione; trifluoroacetic acid]	0.23 nM	1391	320 nM	–
CC(C)S(=O)(=O)c1ccc2cc1CN(C)C(=O)[C@H](Nc1cc(F)c3c(N)nccc3c1)c1ccc(cc1)CCOC(=O)N2 [Comparator 1, reference compound]	38 nM	87	3330 nM	–

Continued, values first:

Ki (human FVIIa; read-out: FVIIa Ki, nM 37° C.)	Ki(HK1)/Ki(FVIIa) (human FVIIa)	Ki (tissue kallikrein (HK1))	Ki (human FVIIa)	Compound
0.02 nM	5000	100 nM	–	Cc1cc2ccc1[C@@H](C)COC(=O)Nc1cc(F)c(O[C@H]3CCOC3)c(c1)CN(C)C(=O)C2Nc1ccc2c(N)nccc2c1.O=C(O)C(F)(F)F (stereo partly drawn) [Example 39, (15R)-2-[(1-Aminoisoquinolin-6-yl)amino]-8-fluoro-4,15,20-trimethyl-7-[(3S)-oxolan-3-yloxy]-13-oxa-4,11-diazatricyclo[14.2.2.1^6,10]henicosa-1(18),6,8,10 (21),16,19-hexaene-3,12-dione; trifluoroacetic acid]
11 nM	10	110 nM	–	CCS(=O)(=O)c1ccc2cc1CNC(=O)[C@H](Nc1ccc3c(N)nccc3c1)c1ccc(cc1)CCOC(=O)N2 [Comparator 2, reference compound]
0.34 nM	1618	550 nM	–	Cc1cc2ccc1[C@@H](C)COC(=O)Nc1cc(F)c(OC[C@H](O)C3CC3)c(c1)CN(C)C(=O)[C@@H]2Nc1ccc2c(N)nccc2c1.O=C(O)C(F)(F)F (stereo in doubt) [Example 21, (2R,15R)-2-[(1-Aminoisoquinolin-6-yl)amino]-7-[(2S)-2-cyclopropyl-2-hydroxyethoxy]-8-fluoro-4,15,20-trimethyl-13-oxa-4,11-diazatricyclo[14.2.2.16,10]henicosa-1(18),6,8,10 (21),16,19-hexaene-3,12-dione; trifluoroacetic acid]
1.2 nM	583	700 nM	–	Cc1cc2ccc1[C@@H](C)COC(=O)Nc1ccc(S(=O)(=O)C(C)C)c(c1)CN(C)C(=O)[C@@H]2Nc1ccc2c(N)ncc(F)c2c1.O=C(O)C(F)(F)F [Example 8, (2R,15R)-2-[(1-Amino-4-fluoroisoquinolin-6-yl)amino]-4,15,17-trimethyl-7-(propane-2-sulfonyl)-13-oxa-4,11-diazatricyclo[14.2.2.1^6,10]henicosa-1(18),6,8,10 (21),16,19-hexaene-3,12-dione; trifluoroacetic acid]
0.17 nM	4412	750 nM	–	Cc1cc2ccc1[C@@H](C)COC(=O)Nc1cc(F)c(S(=O)(=O)C3CC3)c(c1)CN(C)C(=O)[C@@H]2Nc1cc2ccnc(N)c2cc1F.O=C(O)C(F)(F)F [Example 29, (2R,15R)-2-[(1-Amino-7-fluoroisoquinolin-6-yl)amino]-7-(cyclopropanesulfonyl)-8-fluoro-4,15,17-trimethyl-13-oxa-4,11-diazatricyclo[14.2.2.1^6,10]henicosa-1(18),6,8,10 (21),16,19-hexaene-3,12-dione; trifluoroacetic acid]
